Results published in US20220356186A1, “PERK INHIBITING PYRROLOPYRIMIDINE COMPOUNDS” (HiberCell, Inc., priority 2019, published 2022).

What was measured:
[1] = tested on: GFP-eIF2α in HEK293 cells; assay: PERK cellular assay, TR-FRET in HEK293-EGFP-eIF2a cells after tunicamycin-induced ER stress; assay type: cell-based; details: HEK293-EGFP-eIF2a cells, tunicamycin 2 hours; read-out: Cellular eIF2α IC50
Method in brief: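 Compounds were added 30 min before a 2 h tunicamycin ([…]) challenge of lentivirally made GFP-eIF2α HEK293 cells, 5000/well; lysate TR-FRET ratio was the read-out.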

[2] = target: T1, EIF2AK3 (PERK) catalytic domain (amino acids 536-1116) (Homo sapiens, UniProt Q9NZJ5); assay: PERK in vitro activity assay (isolated), TR-FRET kinase assay; assay type: biochemical; details: isolated PERK enzyme, 1.5 μM ATP; read-out: Biochemical IC50
T1 construct: EIF2AK3 (PERK) catalytic domain (amino acids 536-1116)
T1 sequence (Q9NZJ5 536-1116): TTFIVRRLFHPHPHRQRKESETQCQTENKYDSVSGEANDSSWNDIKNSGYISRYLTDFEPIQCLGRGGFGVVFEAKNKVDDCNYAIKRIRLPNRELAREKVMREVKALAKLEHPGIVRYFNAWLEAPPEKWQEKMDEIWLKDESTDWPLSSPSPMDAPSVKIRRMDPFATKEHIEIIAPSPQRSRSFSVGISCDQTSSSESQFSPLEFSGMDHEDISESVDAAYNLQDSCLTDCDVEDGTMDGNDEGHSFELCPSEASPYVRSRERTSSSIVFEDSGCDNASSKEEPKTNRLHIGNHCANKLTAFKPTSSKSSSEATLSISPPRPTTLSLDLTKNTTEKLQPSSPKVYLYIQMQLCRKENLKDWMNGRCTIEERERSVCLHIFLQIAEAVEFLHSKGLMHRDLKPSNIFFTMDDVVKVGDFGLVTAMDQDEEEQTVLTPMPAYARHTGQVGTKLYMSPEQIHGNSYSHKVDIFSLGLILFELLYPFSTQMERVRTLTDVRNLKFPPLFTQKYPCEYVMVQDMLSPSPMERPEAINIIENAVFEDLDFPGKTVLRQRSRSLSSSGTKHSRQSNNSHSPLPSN
Method in brief: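 TR-FRET read-out: after EDTA stop (10 mM final), Tb-labelled phospho-eIF2a antibody (2 nM) for 90 min; IC50 via 4-parameter nonlinear fit. Reaction: PERK aa 536-1116, GFP-eIF2a 100-200 nM, HEPES pH 7.5 with MgCl2/EGTA/Brij-35, 45 min, room temperature, started by enzyme.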

Compound | IC50 [2] | IC50 [1]
Cc1nc(N)c2c(-c3ccc(NC(=O)C(O)c4cc(F)cc(F)c4)cc3F)cn(C)c2n1 (stereo not shown) [Example 84, N-(4-(4-amino-2,7-dimethyl-7H-pyrrolo[2,3-d]pyrimidin-5-yl)-3-fluorophenyl)-2-(3,5-difluorophenyl)-2-hydroxyacetamide] | 51 to 100 nM | 101 to 250 nM
Cc1nc(N)c2c(-c3ccc(NC(=O)C(O)c4cc(F)cc(C(F)(F)F)c4)cc3F)cn(C)c2n1 (stereo not shown) [Example 88, N-(4-(4-amino-2,7-dimethyl-7H-pyrrolo[2,3-d]pyrimidin-5-yl)-3-fluorophenyl)-2-(3-fluoro-5-(trifluoromethyl)phenyl)-2-hydroxyacetamide] | 26 to 50 nM | 251 to 500 nM
Cc1nc(N)c2c(-c3ccc(NC(=O)C(O)c4cccc(F)c4)c(F)c3)cn(C)c2n1 (stereo not shown) [Example 89, N-(4-(4-amino-2,7-dimethyl-7H-pyrrolo[2,3-d]pyrimidin-5-yl)-2-fluorophenyl)-2-(3-fluorophenyl)-2-hydroxyacetamide] | 251 to 500 nM | 2000 to 3000 nM
Cc1nc(N)c2c(-c3ccc(NC(=O)C(O)c4cccc(F)c4)cc3Cl)cn(C)c2n1 (stereo not shown) [Example 91, N-(4-(4-amino-2,7-dimethyl-7H-pyrrolo[2,3-d]pyrimidin-5-yl)-3-chlorophenyl)-2-(3-fluorophenyl)-2-hydroxyacetamide] | 101 to 250 nM | 501 to 1000 nM
Cc1nc(N)c2c(-c3ccc(NC(=O)C(O)c4ccccc4C)cc3Cl)cn(C)c2n1 (stereo not shown) [Example 93, N-(4-(4-amino-2,7-dimethyl-7H-pyrrolo[2,3-d]pyrimidin-5-yl)-3-chlorophenyl)-2-hydroxy-2-(o-tolyl)acetamide] | 501 to 1000 nM | 2000 to 3000 nM
Cc1cccc(C(O)C(=O)Nc2ccc(-c3cn(C)c4nc(C)nc(N)c34)c(Cl)c2)c1 (stereo not shown) [Example 95, N-(4-(4-amino-2,7-dimethyl-7H-pyrrolo[2,3-d]pyrimidin-5-yl)-3-chlorophenyl)-2-hydroxy-2-(m-tolyl)acetamide] | 51 to 100 nM | 251 to 500 nM
CCc1cccc(C(O)C(=O)Nc2ccc(-c3cn(C)c4nc(C)nc(N)c34)c(Cl)c2)c1 (stereo not shown) [Example 98, N-(4-(4-amino-2,7-dimethyl-7H-pyrrolo[2,3-d]pyrimidin-5-yl)-3-chlorophenyl)-2-(3-ethylphenyl)-2-hydroxyacetamide] | 51 to 100 nM | 251 to 500 nM
Cc1nc(N)c2c(-c3ccc(NC(=O)C(O)c4cccc(Cl)c4)cc3Cl)cn(C)c2n1 (stereo not shown) [Example 100, N-(4-(4-amino-2,7-dimethyl-7H-pyrrolo[2,3-d]pyrimidin-5-yl)-3-chlorophenyl)-2-(3-chlorophenyl)-2-hydroxyacetamide] | 26 to 50 nM | 101 to 250 nM
Cc1nc(N)c2c(-c3ccc(NC(=O)C(O)c4cccc(C(F)(F)F)c4)cc3Cl)cn(C)c2n1 (stereo not shown) [Example 102, N-(4-(4-amino-2,7-dimethyl-7H-pyrrolo[2,3-d]pyrimidin-5-yl)-3-chlorophenyl)-2-hydroxy-2-(3-(trifluoromethyl)phenyl)acetamide] | 101 to 250 nM | 101 to 250 nM
COc1cc(NC(=O)C(O)c2cccc(F)c2)ccc1-c1cn(C)c2ncnc(N)c12 (stereo not shown) [Example 103, N-(4-(4-amino-7-methyl-7H-pyrrolo[2,3-d]pyrimidin-5-yl)-3-methoxyphenyl)-2-(3-fluorophenyl)-2-hydroxyacetamide] | 101 to 250 nM | 2000 to 3000 nM
COc1cc(NC(=O)C(O)c2cccc(F)c2)ccc1-c1cn(C)c2ncnc(N)c12 (stereo not shown) [Example 104, N-(4-(4-amino-7-methyl-7H-pyrrolo[2,3-d]pyrimidin-5-yl)-3-methoxyphenyl)-2-(3-fluorophenyl)-2-hydroxyacetamide] | 26 to 50 nM | 101 to 250 nM
Cc1nc(N)c2c(-c3ccc(NC(=O)C(O)c4cccc(C(F)(F)F)c4)c(F)c3F)cn(C)c2n1 (stereo not shown) [Example 108, N-(4-(4-amino-2,7-dimethyl-7H-pyrrolo[2,3-d]pyrimidin-5-yl)-2,3-difluorophenyl)-2-hydroxy-2-(3-(trifluoromethyl)phenyl)acetamide] | 101 to 250 nM | 101 to 250 nM
Cc1nc(N)c2c(-c3ccc(NC(=O)C(O)c4cccc(Cl)c4)c(F)c3F)cn(C)c2n1 (stereo not shown) [Example 111, N-(4-(4-amino-2,7-dimethyl-7H-pyrrolo[2,3-d]pyrimidin-5-yl)-2,3-difluorophenyl)-2-(3-chlorophenyl)-2-hydroxyacetamide] | 1 to 25 nM | 1 to 25 nM

Second part, led by results:

IC50 [2] | Compound | IC50 [1]
1 to 25 nM | Cc1nc(N)c2c(-c3ccc(NC(=O)C(O)c4cccc(Cl)c4)cc3F)cn(C)c2n1 (stereo not shown) [Example 82, N-(4-(4-amino-2,7-dimethyl-7H-pyrrolo[2,3-d]pyrimidin-5-yl)-3-fluorophenyl)-2-(3-chlorophenyl)-2-hydroxyacetamide] | 1 to 25 nM
1 to 25 nM | Cc1nc(N)c2c(-c3ccc(NC(=O)C(O)c4cc(F)cc(F)c4)cc3F)cn(C)c2n1 (stereo not shown) [Example 83, N-(4-(4-amino-2,7-dimethyl-7H-pyrrolo[2,3-d]pyrimidin-5-yl)-3-fluorophenyl)-2-(3,5-difluorophenyl)-2-hydroxyacetamide] | 1 to 25 nM
1 to 25 nM | Cc1cc(F)cc(C(O)C(=O)Nc2ccc(-c3cn(C)c4nc(C)nc(N)c34)c(F)c2)c1 (stereo not shown) [Example 85, N-(4-(4-amino-2,7-dimethyl-7H-pyrrolo[2,3-d]pyrimidin-5-yl)-3-fluorophenyl)-2-(3-fluoro-5-methylphenyl)-2-hydroxyacetamide] | 1 to 25 nM
1 to 25 nM | Cc1cc(F)cc(C(O)C(=O)Nc2ccc(-c3cn(C)c4nc(C)nc(N)c34)c(F)c2)c1 (stereo not shown) [Example 86, N-(4-(4-amino-2,7-dimethyl-7H-pyrrolo[2,3-d]pyrimidin-5-yl)-3-fluorophenyl)-2-(3-fluoro-5-methylphenyl)-2-hydroxyacetamide] | 51 to 100 nM
1 to 25 nM | Cc1nc(N)c2c(-c3ccc(NC(=O)C(O)c4cc(F)cc(C(F)(F)F)c4)cc3F)cn(C)c2n1 (stereo not shown) [Example 87, N-(4-(4-amino-2,7-dimethyl-7H-pyrrolo[2,3-d]pyrimidin-5-yl)-3-fluorophenyl)-2-(3-fluoro-5-(trifluoromethyl)phenyl)-2-hydroxyacetamide] | 51 to 100 nM
1 to 25 nM | Cc1nc(N)c2c(-c3ccc(NC(=O)C(O)c4cccc(F)c4)c(F)c3)cn(C)c2n1 (stereo not shown) [Example 90, N-(4-(4-amino-2,7-dimethyl-7H-pyrrolo[2,3-d]pyrimidin-5-yl)-2-fluorophenyl)-2-(3-fluorophenyl)-2-hydroxyacetamide] | 26 to 50 nM
1 to 25 nM | Cc1nc(N)c2c(-c3ccc(NC(=O)C(O)c4cccc(F)c4)cc3Cl)cn(C)c2n1 (stereo not shown) [Example 92, N-(4-(4-amino-2,7-dimethyl-7H-pyrrolo[2,3-d]pyrimidin-5-yl)-3-chlorophenyl)-2-(3-fluorophenyl)-2-hydroxyacetamide] | 51 to 100 nM
1 to 25 nM | Cc1nc(N)c2c(-c3ccc(NC(=O)C(O)c4ccccc4C)cc3Cl)cn(C)c2n1 (stereo not shown) [Example 94, N-(4-(4-amino-2,7-dimethyl-7H-pyrrolo[2,3-d]pyrimidin-5-yl)-3-chlorophenyl)-2-hydroxy-2-(o-tolyl)acetamide] | 51 to 100 nM
1 to 25 nM | Cc1cccc(C(O)C(=O)Nc2ccc(-c3cn(C)c4nc(C)nc(N)c34)c(Cl)c2)c1 (stereo not shown) [Example 96, N-(4-(4-amino-2,7-dimethyl-7H-pyrrolo[2,3-d]pyrimidin-5-yl)-3-chlorophenyl)-2-hydroxy-2-(m-tolyl)acetamide] | 1 to 25 nM
1 to 25 nM | CCc1cccc(C(O)C(=O)Nc2ccc(-c3cn(C)c4nc(C)nc(N)c34)c(Cl)c2)c1 (stereo not shown) [Example 97, N-(4-(4-amino-2,7-dimethyl-7H-pyrrolo[2,3-d]pyrimidin-5-yl)-3-chlorophenyl)-2-(3-ethylphenyl)-2-hydroxyacetamide] | 1 to 25 nM
1 to 25 nM | Cc1nc(N)c2c(-c3ccc(NC(=O)C(O)c4cccc(Cl)c4)cc3Cl)cn(C)c2n1 (stereo not shown) [Example 99, N-(4-(4-amino-2,7-dimethyl-7H-pyrrolo[2,3-d]pyrimidin-5-yl)-3-chlorophenyl)-2-(3-chlorophenyl)-2-hydroxyacetamide] | 1 to 25 nM
1 to 25 nM | Cc1nc(N)c2c(-c3ccc(NC(=O)C(O)c4cccc(C(F)(F)F)c4)cc3Cl)cn(C)c2n1 (stereo not shown) [Example 101, N-(4-(4-amino-2,7-dimethyl-7H-pyrrolo[2,3-d]pyrimidin-5-yl)-3-chlorophenyl)-2-hydroxy-2-(3-(trifluoromethyl)phenyl)acetamide] | 1 to 25 nM
1 to 25 nM | Cc1nc(N)c2c(-c3ccc(NC(=O)C(O)c4cccc(C(F)(F)F)c4)c(F)c3F)cn(C)c2n1 (stereo not shown) [Example 107, N-(4-(4-amino-2,7-dimethyl-7H-pyrrolo[2,3-d]pyrimidin-5-yl)-2,3-difluorophenyl)-2-hydroxy-2-(3-(trifluoromethyl)phenyl)acetamide] | 1 to 25 nM
